Test results published in paper PMC6149822, “A New Series of Pyrrole-Based Chalcones: Synthesis and Evaluation of Antimicrobial Activity, Cytotoxicity, and Genotoxicity” (Molecules : A Journal of Synthetic Chemistry and Natural …, 2017).
In brackets after ≈: the same amount, converted by molar mass.

What was measured:
C. krusei (ATCC 6258) = experiment: Microdilution susceptibility assay (MIC); format: cell-based, Candida krusei; settings: Pichia kudriavzevii, ATCC6258
Procedure: (§1) Compounds 1–10 were screened for their antimicrobial activity against gram-negative bacteria, gram-positive bacteria, and yeasts, listed in Table 1. Bacteria were grown in Mueller-Hinton Broth and yeasts were grown in Sabouraud Dextrose Broth (SDB) during experiments. Overnight cultures were prepared routinely by subculturing of stock culture onto Mueller-Hinton Agar for bacteria and Sabouraud Dextrose Agar for yeasts.
(§2) Microdilution susceptibility assay was used for the determination of antibacterial and anticandidal efficacy of compounds 1–10. Chloramphenicol and ketoconazole were used as positive controls for bacteria and yeasts, respectively. All experiments were designed according to the Clinical Laboratory Standards Institute (CLSI). All chemicals were dissolved in dimethyl sulfoxide (DMSO) to obtain stock solution (10 mg/mL). Two-fold serial dilutions (800, 400, 200...0.78 µg/mL) of the compounds were prepared from stock solutions with dH2O. 100 µL of each solution was transferred to 96-well microtiter plates and 100 µL of 10^6 CFU/mL of bacteria and 2 × 10^3 of CFU/mL yeast were added to related wells. As negative controls, wells including microorganisms without agents and wells including agents without microorganisms were used. The plates were kept at 35 °C for 18–20 h and the growth was determined with resazurin (20 mg/mL). Assays were carried out in triplicate.

[1] = system: A549 human lung adenocarcinoma cell line; experiment: MTT assay; format: cell-based; settings: Homo sapiens, A549
Procedure: (§3) The anticancer effects of compounds 1–10 on A549 human lung adenocarcinoma (ATCC® CCL-185™), HepG2 human hepatocellular carcinoma (ATCC® HB-8065™), and C6 rat glioma (ATCC® CCL107™) cell lines were assessed using 3-(4,5-Dimethylthiazol-2-yl)-2,5-diphenyltetrazolium bromide (MTT) assay, whereas the selectivity of compounds 1–10 was tested using NIH/3T3 mouse embryonic fibroblast cell line (ATCC® CRL-1658™, London, UK). All cell lines were incubated according to the supplier’s recommendations. The cells were seeded as 1 × 10^4 cells into each well of the 96-well plates. MTT assay was performed as previously described. The compounds were tested between the concentrations equal to 1 mM and 0.000316 mM (1.0, 0.316, 0.10, 0.0316, 0.01, 0.00316, 0.001, 0.000316 mM). Stock solutions of compounds were prepared in dimethyl sulfoxide (DMSO) and further dilutions were made with fresh culture medium. The final DMSO concentration was under 1% [34] and cisplatin was used as a positive control. Inhibition % was calculated for each concentration according to the formula below, and IC50 values were determined by plotting a dose–response curve of inhibition % versus compound concentrations tested. All experiments were performed in quadruplicate.Inhibition % = 100 − [(ODtest compound − ODblank/ODsolvent control − ODblank)] × 100(1)

[2] = system: HepG2 human hepatocellular carcinoma cell line; experiment: MTT assay; format: cell-based; settings: Homo sapiens, HepG2
Procedure: as §3

C6 rat glioma cell line = experiment: MTT assay; format: cell-based; settings: Rattus norvegicus, C6
Procedure: as §3

[3] = system: NIH/3T3 mouse embryonic fibroblast cell line; experiment: MTT assay; format: cell-based; settings: Mus musculus, NIH3T3, healthy cells for selectivity
Procedure: as §3

[4] = system: C. parapsilosis (ATCC 22019); experiment: Microdilution susceptibility assay (MIC); format: cell-based, Candida parapsilosis; settings: Lodderomyces parapsilosis, ATCC22019
Procedure: as §1, §2

E. faecalis (ATCC 51299) = experiment: Microdilution susceptibility assay (MIC); format: cell-based; settings: Enterococcus faecalis, ATCC51299
Procedure: as §1, §2

E. faecalis (ATCC 29212) = experiment: Microdilution susceptibility assay (MIC); format: cell-based; settings: Enterococcus faecalis, ATCC29212
Procedure: as §1, §2

[5] = system: K. pneumoniae (ATCC 700603); experiment: Microdilution susceptibility assay (MIC); format: cell-based; settings: Klebsiella pneumoniae, ATCC700603
Procedure: as §1, §2

C. albicans (ATCC 90028) = experiment: Microdilution susceptibility assay (MIC); format: cell-based; settings: Candida albicans, ATCC90028
Procedure: as §1, §2

S. aureus (ATCC 25923) = experiment: Microdilution susceptibility assay (MIC); format: cell-based; settings: Staphylococcus aureus, ATCC25923
Procedure: as §1, §2

E. coli (ATCC 25922) = experiment: Microdilution susceptibility assay (MIC); format: cell-based; settings: Escherichia coli, ATCC25922
Procedure: as §1, §2

C. krusei cells = experiment: Flow cytometry live/dead analysis (TO/PI); format: cell-based, Candida krusei; settings: 25 µg/mL, 4 h
Excerpt: In order to investigate the effects of compounds 7 and 9 on the integrity of C. krusei cells, flow cytometry was used with BD cell viability kits. Live cells are impermeable to dyes such as PI since they have intact membranes. TO is a permeant dye and enters live and dead cells to varying degrees. The fluorescent signal from TO in viable cells allows their enumeration, even when debris in the cell preparation contaminates a scatter gate around the cells. Thus, the combination of these two dyes provides a rapid and reliable method for discriminating live and dead eukaryotic cells, including yeasts. All steps were performed according to manufacturers’ recommendations. Briefly, Candida cells were cultured at 35 °C in SDB until late log phase. The cells were centrifuged and washed with phosphate-buffered saline (PBS) at pH = 7.0. Suspensions containing 2 × 10^3 cells/mL were incubated with compounds 7 and 9, and ketoconazole as a reference drug, for 4 h at 35 °C, with shaking (200 r.p.m.). […] Suspensions of treated and untreated cells were incubated for 30 min in the presence of 2 µL of PI and 2 µL of TO, in the dark, at room temperature. The cell suspensions were analysed in a BD Accuri C6 flow cytometer (Becton-Dickinson, Mansfield, MA, USA). The cell scattergram (forward scatter: FS, side scatter: SS), the autofluorescence (without fluorocrome), and the intensity of fluorescence at FL1 (green fluorescence, 525 nm) and FL2 (red fluorescence, 620 nm) were recorded using a logarithmic scale.

C. glabrata (ATCC 90030) = experiment: Microdilution susceptibility assay (MIC); format: cell-based, Candida glabrata; settings: Nakaseomyces glabratus, ATCC90030
Procedure: as §1, §2

Structure (SMILES): Cn1cccc1C(=O)C=Cc1ccc(-c2ccc(Cl)cc2)o1 [Compound 7, 1-(1-Methyl-1H-pyrrol-2-yl)-3-(5-(4-chlorophenyl)furan-2-yl)prop-2-en-1-one]
- MIC (C. krusei (ATCC 6258)): 25 µg/mL (≈ 80.2 µM)
- IC50 [1]: 98 µg/mL (≈ 314 µM)
- IC50 [2]: 23 µg/mL (≈ 73.8 µM)
- IC50 (C6 rat glioma cell line): 311 µg/mL (≈ 998 µM)
- IC50 [3]: 40 µg/mL (≈ 128 µM)
- MIC [4]: 100 µg/mL (≈ 321 µM)
- MIC (E. faecalis (ATCC 51299)): 200 µg/mL (≈ 642 µM)
- MIC (E. faecalis (ATCC 29212)): 100 µg/mL (≈ 321 µM)
- MIC [5]: 100 µg/mL (≈ 321 µM)
- MIC (C. albicans (ATCC 90028)): 50 µg/mL (≈ 160 µM)
- MIC (S. aureus (ATCC 25923)): 400 µg/mL (≈ 1280 µM)
- MIC (E. coli (ATCC 25922)): 400 µg/mL (≈ 1280 µM)
- Dead Cell % (C. krusei cells): 20.0%
- Live Cell % (C. krusei cells): 79.6%
- MIC (C. glabrata (ATCC 90030)): 100 µg/mL (≈ 321 µM)

Structure (SMILES): Cn1cccc1C(=O)C=Cc1ccc(-c2cc(Cl)ccc2Cl)o1 [Compound 9, 1-(1-Methyl-1H-pyrrol-2-yl)-3-(5-(2,5-dichlorophenyl)furan-2-yl)prop-2-en-1-one]
- MIC (C. krusei (ATCC 6258)): 25 µg/mL (≈ 72.2 µM)
- IC50 [1]: > 346 µg/mL
- IC50 [2]: 101 µg/mL (≈ 292 µM)
- IC50 (C6 rat glioma cell line): 109 µg/mL (≈ 315 µM)
- IC50 [3]: 109 µg/mL (≈ 315 µM)
- MIC [4]: 50 µg/mL (≈ 144 µM)
- MIC (E. faecalis (ATCC 51299)): 400 µg/mL (≈ 1160 µM)
- MIC (E. faecalis (ATCC 29212)): 200 µg/mL (≈ 578 µM)
- MIC [5]: 200 µg/mL (≈ 578 µM)
- MIC (C. albicans (ATCC 90028)): 200 µg/mL (≈ 578 µM)
- MIC (S. aureus (ATCC 25923)): 200 µg/mL (≈ 578 µM)
- MIC (E. coli (ATCC 25922)): 100 µg/mL (≈ 289 µM)
- Dead Cell % (C. krusei cells): 15.9%
- Live Cell % (C. krusei cells): 83.9%
- MIC (C. glabrata (ATCC 90030)): 100 µg/mL (≈ 289 µM)
